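96-well plates; 48 h exposure; 5 concentrations. Endpoints by linear interpolation between flanking doses. Not reached: highest tested concentration assigned. GI50: concentration for 50% inhibition of growth. TGI denotes the concentration required for complete inhibition of growth.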

Among the data in PubChem BioAssay (NCI) are TGI and GI50 values, retold here.

Among the test systems are HL-60(TB) leukemia; HOP-62 NSCLC; HOP-92 NSCLC; IGROV1 ovarian; M14 melanoma; MCF7 breast; RXF 393 renal; SK-MEL-28 melanoma; SK-MEL-5 melanoma; SNB-75 CNS; TK-10 renal; UACC-62 melanoma; UO-31 renal; COLO 205 colon; NCI-H226 lung; SF-539 CNS; NCI/ADR-RES ovarian; OVCAR-3 ovarian.
Common to all, as to assay: DTP human tumour cell line panel, 48 h

For orientation: TGI means the concentration at which net growth stops. A higher TGI goes with lower sensitivity of the cells. Turning to `COc1cc(/C=C2\CCC(C)C3=C2N=c2s/c(=C/c4ccc(Cl)cc4)c(=O)n2C3c2cc(OC)c(OC)c(OC)c2)cc(OC)c1OC` (configuration not stated), the TGI in the experiment on HL-60(TB) leukemia, with HOP-62 NSCLC, in the experiment on HOP-92 NSCLC, in the experiment on IGROV1 ovarian, in the experiment with M14 melanoma and with MCF7 breast was over 100 µM throughout. The TGI in the experiment on RXF 393 renal, in the experiment with SK-MEL-28 melanoma, in the experiment with SK-MEL-5 melanoma, with SNB-75 CNS, with TK-10 renal and in the experiment on UACC-62 melanoma was over 100 µM in each case. In the experiment with UO-31 renal, this compound yielded a TGI of over 100 µM.
For the compound `N#CC(NNC(=O)Cc1ccccc1)c1ccc([N+](=O)[O-])cc1` (configuration not stated), the TGI with COLO 205 colon, with HL-60(TB) leukemia, in the experiment on HOP-62 NSCLC, in the experiment with HOP-92 NSCLC, with IGROV1 ovarian and in the experiment on M14 melanoma was over 100 µM throughout. Moreover, the TGI with NCI-H226 lung, with RXF 393 renal, in the experiment on SF-539 CNS, with SK-MEL-28 melanoma, in the experiment with SK-MEL-5 melanoma and in the experiment on SNB-75 CNS was over 100 µM throughout. The TGI in the experiment on TK-10 renal, in the experiment with UACC-62 melanoma and with UO-31 renal was over 100 µM throughout.
As to `Cc1ccc(S(=O)(=O)C2=Cc3ccccc3C2(O)c2ccccc2)cc1` (configuration not stated), the TGI is 62.6 µM in the experiment on COLO 205 colon; 29.6 µM with HL-60(TB) leukemia; over 10 µM in the experiment on HOP-62 NSCLC; over 100 µM with IGROV1 ovarian; 31 µM in the experiment on M14 melanoma; 64.5 µM with NCI-H226 lung. In addition, the TGI with NCI/ADR-RES ovarian is 76.6 µM; in the experiment with SF-539 CNS it was 47.5 µM; in the experiment on SK-MEL-28 melanoma, 31.1 µM; in the experiment with SK-MEL-5 melanoma, 31.2 µM; in the experiment on SNB-75 CNS, over 100 µM; in the experiment on TK-10 renal, over 100 µM.
As a reminder, the GI50 is the concentration at which growth is held to half of that of the control. `COc1cc2c(c(OC)c1OC)-c1ccc(SC)c(=O)cc1[C@@H](NC(=O)c1cccc([N+](=O)[O-])c1)CC2`: the TGI amounted to 0.0343 µM in the experiment with COLO 205 colon; 14.9 µM in the experiment with HOP-62 NSCLC; 35.6 µM in the experiment with IGROV1 ovarian; 0.0404 µM with OVCAR-3 ovarian; 0.0377 µM in the experiment on SF-539 CNS; 82.3 µM with SK-MEL-28 melanoma. Also, the TGI in the experiment with SK-MEL-5 melanoma is 0.0467 µM; in the experiment on TK-10 renal it was 55.3 µM; with UACC-62 melanoma it was 36.4 µM; in the experiment on UO-31 renal it was over 100 µM. Further, the GI50 in the experiment on SK-MEL-28 melanoma was 10.5 µM; in the experiment on UO-31 renal, 0.0276 µM.
On to `O=C1/C(=C/c2ccccc2Cl)COc2ccc(Br)cc21`, for which the TGI in the experiment on COLO 205 colon, in the experiment on HL-60(TB) leukemia, in the experiment with HOP-62 NSCLC, with HOP-92 NSCLC, in the experiment on IGROV1 ovarian and in the experiment on OVCAR-3 ovarian was over 100 µM throughout. Moreover, the TGI in the experiment on RXF 393 renal, in the experiment with SF-539 CNS, in the experiment with SK-MEL-28 melanoma, in the experiment with SNB-75 CNS, in the experiment on TK-10 renal and with UO-31 renal was over 100 µM each time.
As for `Cc1cc(Cl)ccc1NC(=O)/C(=N\NC(C)(C)C)C(C#N)c1nc(-c2ccc([N+](=O)[O-])cc2)cs1` (configuration not stated), the TGI with HL-60(TB) leukemia, with HOP-62 NSCLC, with HOP-92 NSCLC, in the experiment with IGROV1 ovarian, in the experiment with M14 melanoma and in the experiment on NCI-H226 lung was over 100 µM throughout. For the same compound, the TGI in the experiment on OVCAR-3 ovarian, in the experiment on SF-539 CNS, with SK-MEL-28 melanoma, in the experiment on SK-MEL-5 melanoma, with SNB-75 CNS and with TK-10 renal was over 100 µM each time. For the same compound, the TGI with UACC-62 melanoma and in the experiment with UO-31 renal was over 100 µM in each case.
For the compound `CCOC(=O)C1CCCc2sc(N)c(C#N)c21` (configuration not stated), the TGI in the experiment on COLO 205 colon, with HL-60(TB) leukemia, in the experiment with HOP-62 NSCLC, with HOP-92 NSCLC, in the experiment on IGROV1 ovarian and in the experiment with M14 melanoma was over 100 µM throughout. The TGI in the experiment on MCF7 breast, with NCI-H226 lung, in the experiment with RXF 393 renal, in the experiment on SK-MEL-28 melanoma, with SK-MEL-5 melanoma and in the experiment on SNB-75 CNS was over 100 µM throughout. In addition, the TGI in the experiment on TK-10 renal, with UACC-62 melanoma and in the experiment on UO-31 renal was over 100 µM each time.
With `COc1c(Sc2c(SCSc3cnc4ccccc4c3Sc3cnc4ccccc4c3OC)cnc3ccccc23)cnc2ccccc12`, the TGI in the experiment with COLO 205 colon is over 100 µM; in the experiment on HL-60(TB) leukemia, 26.3 µM; with HOP-62 NSCLC, over 100 µM; in the experiment on HOP-92 NSCLC it was 84 µM; in the experiment on IGROV1 ovarian, over 100 µM; in the experiment with M14 melanoma it was over 100 µM. For the same compound, the concentration for total growth inhibition (TGI) in the experiment with NCI/ADR-RES ovarian, in the experiment on OVCAR-3 ovarian, in the experiment with SF-539 CNS, in the experiment with SK-MEL-28 melanoma, in the experiment with SK-MEL-5 melanoma and in the experiment on SNB-75 CNS was over 100 µM throughout. Moreover, the TGI with TK-10 renal, in the experiment with UACC-62 melanoma and with UO-31 renal was over 100 µM each time.
For the compound `COc1cc([C@@H]2c3cc4c(cc3[C@@H](NCc3ccccc3F)C3COC(=O)[C@@H]32)OCO4)cc(OC)c1O` (some centres not stated), the TGI with COLO 205 colon stood at 77.4 µM; with HL-60(TB) leukemia it was 4.26 µM; in the experiment on HOP-62 NSCLC, 7.74 µM; with HOP-92 NSCLC, 54.3 µM; in the experiment with IGROV1 ovarian it was 20.5 µM; with M14 melanoma it was 13.6 µM. Further, the concentration for total growth inhibition (TGI) was 7.52 µM in the experiment with NCI-H226 lung; 40.9 µM in the experiment with OVCAR-3 ovarian; 54.7 µM in the experiment with RXF 393 renal; 16.2 µM with SF-539 CNS; 46.6 µM in the experiment with SK-MEL-28 melanoma; 7.86 µM with SK-MEL-5 melanoma. Also, the total growth inhibition concentration (TGI) was 42.6 µM in the experiment with SNB-75 CNS, 81.4 µM in the experiment with TK-10 renal, 4.43 µM in the experiment on UACC-62 melanoma and 17.3 µM in the experiment with UO-31 renal.
On to `CC(=O)OCC12CC(CC1OC(C)=O)c1ccccc12` (configuration not stated), for which the TGI with COLO 205 colon, in the experiment on HL-60(TB) leukemia, with HOP-62 NSCLC, in the experiment with HOP-92 NSCLC, with IGROV1 ovarian and in the experiment with M14 melanoma was over 100 µM in each case. Besides, the TGI in the experiment with NCI-H226 lung, with OVCAR-3 ovarian, with SK-MEL-28 melanoma, in the experiment with SK-MEL-5 melanoma, in the experiment on TK-10 renal and in the experiment with UACC-62 melanoma was over 100 µM throughout. The total growth inhibition concentration (TGI) in the experiment with UO-31 renal was over 100 µM.
